Reference: patent US9981909B2 (Janssen Pharmaceutica NV, priority 2008, dated 2018)
Where a name gives a salt, the structure may show the parent alone.

Columns and labels:
rat 5-HT7 receptor = rat 5-HT7 receptor (Rattus norvegicus (Rat), UniProt P32305); test: r5-HT7 binding assay, competitive radioligand binding with [3H]5-CT
Method in brief: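 Whole r5-HT7-transfected HEK-293 cells first received test compound for 10 min. They were then exposed to 100 nM 5-CT for 20 min before lysis and competitive immunoassay of cAMP. Affinity came from displacement of [3H]5-CT on membranes of the same recombinant line, expressed as Ki.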

human SERT = human SERT (Homo sapiens (Human), UniProt P31645); test: human SERT binding assay with [3H]-citalopram on HEK-293 membranes; conditions: read-out: hSERT binding Ki
Chain of human SERT (P31645 whole entry): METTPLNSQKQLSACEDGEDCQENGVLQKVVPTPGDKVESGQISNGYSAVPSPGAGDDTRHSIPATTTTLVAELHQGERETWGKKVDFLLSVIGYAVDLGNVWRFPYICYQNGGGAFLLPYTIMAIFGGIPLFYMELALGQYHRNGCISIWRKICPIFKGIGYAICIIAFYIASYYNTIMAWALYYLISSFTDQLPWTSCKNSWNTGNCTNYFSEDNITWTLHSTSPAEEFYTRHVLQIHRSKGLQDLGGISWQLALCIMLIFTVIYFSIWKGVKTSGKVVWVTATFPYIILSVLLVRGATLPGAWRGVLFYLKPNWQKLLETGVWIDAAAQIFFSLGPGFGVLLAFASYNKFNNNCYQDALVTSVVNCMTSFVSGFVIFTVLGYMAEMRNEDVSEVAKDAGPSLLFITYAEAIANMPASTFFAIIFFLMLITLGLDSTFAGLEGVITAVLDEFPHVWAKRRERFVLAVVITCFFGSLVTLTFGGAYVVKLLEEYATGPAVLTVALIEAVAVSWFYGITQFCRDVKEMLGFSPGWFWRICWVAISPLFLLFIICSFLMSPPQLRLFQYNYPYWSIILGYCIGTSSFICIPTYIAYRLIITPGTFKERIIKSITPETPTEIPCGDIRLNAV

r5-HT7 receptor = r5-HT7 receptor (Rattus norvegicus (Rat), UniProt P32305); test: HitHunter cAMP assay, antagonist testing against 100 nM 5-CT; type: cell-based; conditions: antagonist testing, 100 nM 5-CT challenge, HEK-293 r5-HT7; read-out: R5HT7 cAMP pKb (converted)
Chain of r5-HT7 receptor (P32305 1-435): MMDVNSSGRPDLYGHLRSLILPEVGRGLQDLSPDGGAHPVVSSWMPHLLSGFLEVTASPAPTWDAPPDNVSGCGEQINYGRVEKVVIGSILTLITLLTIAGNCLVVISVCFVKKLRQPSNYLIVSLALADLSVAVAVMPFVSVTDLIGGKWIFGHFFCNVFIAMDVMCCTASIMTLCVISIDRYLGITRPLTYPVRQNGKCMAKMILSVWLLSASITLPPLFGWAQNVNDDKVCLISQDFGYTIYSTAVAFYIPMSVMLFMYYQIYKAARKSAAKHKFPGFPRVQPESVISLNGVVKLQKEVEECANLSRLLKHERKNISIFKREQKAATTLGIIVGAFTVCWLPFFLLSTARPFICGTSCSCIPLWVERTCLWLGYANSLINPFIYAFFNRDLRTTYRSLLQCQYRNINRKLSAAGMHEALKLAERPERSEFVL
Description: Receptor binding was performed using membrane fractions prepared from the HEK-293 cell line recombinantly expressing rat 5-HT7 receptors (NCBI accession NM_022938). Compound affinity for the rat 5-HT7 receptor subtype was evaluated by competitive radioligand binding assays using 5-carboxamido[^3H]tryptamine ([^3H]5-CT) (Amersham Biosciences, cat. 90000403) detection. HitHunter™ cAMP assays are in-vitro based competitive immunoassays. The assay was performed on the HEK-293 cell line stably transfected with r5-HT7 receptor. Cells were pre-incubated with test compounds for 10 minutes. For antagonist testing, the cells were then challenged with 100 nM 5-CT for 20 minutes. Cells were then lysed and cAMP measured according to manufacturers protocol (Amersham, cat. NET791250UC) or [^3H]mesulergine (Amersham, cat. TRK1041). The assay was performed on membranes prepared from HEK-293 cells stably transfected with h5-HT6. Following centrifugation, membranes were resuspended and incubated for 60 min at room temperature with 1.7 nM [^3H]LSD in the presence of increasing concentration of test compounds. Nonspecific binding was defined in the presence of 10 μM clozapine (Tocris, cat. TRK1068). Homogenized HEK-293 membranes expressing the human SERT were incubated in 50 mM Tris-HCl (pH 7.5), 120 mM NaCl, 5 mM KCl with [^3H]-citalopram (3 nM) with or without test compounds. Nonspecific binding was determined in the presence of 10 μM fluoxetine. Radioactivity readouts and Ki values were performed as previously described for r5-HT7. […] Compounds were assayed in their free form or as salts, as indicated in the Examples section above.

[1] = rat 5-HT7 receptor, HEK-293 membranes

Chain of rat 5-HT7 receptor (P32305 1-435): as above

Ki (rat 5-HT7 receptor; rat 5-HT7, HEK-293 membranes)	SMILES	Ki (rat 5-HT7 receptor; [1])	Ki (human SERT)	Kb (r5-HT7 receptor)
–	CC(Oc1ccc(Cl)cc1OC1CNC1)c1cccc(C(F)(F)F)c1 (racemic) [Example 105, (±)-3-[5-Chloro-2-[1-(3-trifluoromethyl-phenyl)-ethoxy]-phenoxy]-azetidine]	23 nM	193 nM	50.1 nM
–	CC(Oc1ccc(Cl)cc1OC1CNC1)c1cccc(Cl)c1 (racemic) [Example 114, (±)-3-[5-Chloro-2-[1-(3-chloro-phenyl)-ethoxly]-phenoxy]-azetidine]	14 nM	75 nM	31.6 nM
–	Fc1ccc2c(c1)C(Oc1ccc(Cl)cc1OC1CNC1)CC2 (racemic) [Example 150, (±)-3-[5-Chloro-2-(6-fluoro-indan-1-yloxy)-phenoxy]-azetidine]	10 nM	13 nM	10 nM
–	Clc1ccc2c(c1)CCC2Oc1ccc(Br)cc1OC1CNC1 (racemic) [Example 152, (±)-3-[5-Bromo-2-(5-chloro-indan-1-yloxy)-phenoxy]-azetidine]	19 nM	25 nM	39.8 nM
–	Fc1ccc2c(c1)CCC2Oc1ccc(Br)cc1OC1CNC1 (racemic) [Example 154, (±)-3-[5-Bromo-2-(5-fluoro-indan-1-yloxy)-phenoxy]-azetidine]	18 nM	13 nM	20 nM
–	FC(F)(F)c1ccc2c(c1)C(Oc1ccc(Br)cc1OC1CNC1)CC2 (racemic) [Example 157, (±)-3-[5-Bromo-2-(6-trifluoromethyl-indan-1-yloxy)-phenoxy]-azetidine]	10 nM	181 nM	5.01 nM
–	Brc1ccc(OCc2ccccc2)c(OC2CNC2)c1 [Example 1, 3-(2-Benzyloxy-5-bromo-phenoxy)-azetidine]	9 nM	48 nM	12.6 nM
–	Clc1cccc(COc2ccc(Br)cc2OC2CN(C3CCC3)C2)c1 [Example 3, 3-[5-Bromo-2-(3-chloro-benzyloxy)-phenoxy]-1-cyclobutyl-azetidine]	18 nM	381 nM	2.51 nM
–	CC(C)N1CC(Oc2cc(Br)ccc2OCc2cccc(Cl)c2)C1 [Example 5, 3-[5-Bromo-2-(3-chloro-benzyloxy)-phenoxy]-1-isopropyl-azetidine]	8 nM	194 nM	5.01 nM
–	CCN1CC(Oc2cc(Br)ccc2OCc2cccc(Cl)c2)C1 [Example 6, 3-[5-Bromo-2-(3-chloro-benzyloxy)-phenoxy]-1-ethyl-azetidine]	6 nM	249 nM	3.98 nM
–	FC(F)(F)Oc1cccc(COc2ccc(Br)cc2OC2CNC2)c1 [Example 7, 3-[5-Bromo-2-(3-trifluoromethoxy-benzyloxy)-phenoxy]-azetidine]	10 nM	23 nM	63.1 nM
–	FC(F)(F)c1cccc(COc2ccc(Br)cc2OC2CNC2)c1 [Example 8, 3-[5-Bromo-2-(3-trifluoromethyl-benzyloxy)-phenoxy]-azetidine]	6 nM	4 nM	7.94 nM
–	N#Cc1cccc(COc2ccc(Br)cc2OC2CNC2)c1 [Example 9, 3-[2-(Azetidin-3-yloxy)-4-bromo-phenoxymethyl]-benzonitrile]	11 nM	2 nM	20 nM
–	Fc1ccc(COc2ccc(Br)cc2OC2CNC2)cc1Cl [Example 12, 3-[5-Bromo-2-(3-chloro-4-fluoro-benzyloxy)-phenoxy]-azetidine]	11 nM	6 nM	3.16 nM
–	COc1ccc(COc2ccc(Br)cc2OC2CNC2)cc1Cl [Example 13, 3-[5-Bromo-2-(3-chloro-4-methoxy-benzyloxy)-phenoxy]-azetidine]	4 nM	6 nM	3.98 nM
–	Clc1ccc(COc2ccc(Br)cc2OC2CNC2)cc1 [Example 14, 3-[5-Bromo-2-(4-chloro-benzyloxy)-phenoxy]-azetidine trifluoroacetate]	12 nM	52 nM	158 nM
–	CCN1CC(Oc2cc(Br)ccc2OCc2cccc(F)c2)C1 [Example 18, 3-[5-Bromo-2-(3-fluoro-benzyloxy)-phenoxy]-1-ethyl-azetidine]	5 nM	435 nM	1.58 nM
–	CCCN1CC(Oc2cc(Br)ccc2OCc2cccc(F)c2)C1 [Example 19, 3-[5-Bromo-2-(3-fluoro-benzyloxy)-phenoxy]-1-propyl-azetidine]	4 nM	396 nM	2 nM

Ki (rat 5-HT7 receptor; rat 5-HT7, HEK-293 membranes)	SMILES	Ki (rat 5-HT7 receptor; [1])	Ki (human SERT)	Kb (r5-HT7 receptor)
–	Fc1ccc(COc2ccc(Cl)cc2OC2CNC2)cc1 [Example 25, 3-[5-Chloro-2-(4-fluoro-benzyloxy)-phenoxy]-azetidine hydrochloride]	18 nM	19 nM	39.8 nM
–	COc1cccc(COc2ccc(Cl)cc2OC2CNC2)c1 [Example 33, 3-[5-Chloro-2-(3-methoxy-benzyloxy)-phenoxy]-azetidine]	7 nM	8 nM	15.8 nM
–	N#Cc1cccc(COc2ccc(Cl)cc2OC2CNC2)c1 [Example 34, 3-[2-(Azetidin-3-yloxy)-4-chloro-phenoxymethyl]-benzonitrile]	29 nM	1 nM	39.8 nM
–	Clc1ccc(OCc2ccccc2Cl)c(OC2CNC2)c1 [Example 35, 3-[5-Chloro-2-(2-chloro-benzyloxy)-phenoxy]-azetidine trifluroacetate]	23 nM	3 nM	1000 nM
–	Clc1ccc(COc2ccc(Cl)cc2OC2CNC2)cc1 [Example 36, 3-[5-Chloro-2-(4-chloro-benzyloxy)-phenoxy]-azetidine trifluoroacetate]	15 nM	36 nM	794 nM
–	FC(F)(F)c1cccc(COc2ccc(Cl)cc2OC2CNC2)c1 [Example 39, 3-[5-Chloro-2-(3-trifluoromethyl-benzyloxy)-phenoxy]-azetidine]	7 nM	4 nM	3.16 nM
–	Clc1ccc(OCc2ccccc2)c(OC2CNC2)c1 [Example 40, 3-(2-Benzyloxy-5-chloro-phenoxy)-azetidine]	9 nM	43 nM	39.8 nM
–	FC(F)(F)c1cc(COc2ccc(Cl)cc2OC2CNC2)ccc1Cl [Example 49, 3-[5-Chloro-2-(4-chloro-3-trifluoromethyl-benzyloxy)-phenoxy]-azetidine]	13 nM	40 nM	25.1 nM
–	Clc1ccc(OCc2ccc(Cl)c(Cl)c2)c(OC2CNC2)c1 [Example 50, 3-[5-Chloro-2-(3,4-dichloro-benzyloxy)-phenoxy]-azetidine]	10 nM	5 nM	31.6 nM
–	FC(F)(F)c1ccc(COc2ccc(Cl)cc2OC2CCNCC2)o1 [Example 63, 4-[5-Chloro-2-(5-trifluoromethyl-furan-2-ylmethoxy)-phenoxy]-piperidine hydrochloride]	7 nM	48 nM	25.1 nM
–	Clc1ccc(OC2CCCc3ccccc32)c(OC2CNC2)c1 (stereo not shown) [Example 161, 3-[5-Chloro-2-(1,2,3,4-tetrahydro-naphthalen-1-yloxy)-phenoxy]-azetidine]	28 nM	60 nM	15.8 nM
–	Clc1ccc(OC2Cc3ccccc3C2)c(OC2CNC2)c1 [Example 173, 3-[5-Chloro-2-(indan-2-yloxy)-phenoxy]-azetidine]	7 nM	56 nM	7.94 nM
–	Brc1ccc(OC2Cc3ccccc3C2)c(OC2CNC2)c1 [Example 174, 3-[5-Bromo-2-(indan-2-yloxy)-phenoxy]-azetidine]	6 nM	42 nM	6.31 nM
–	ON=C(COc1ccc(Cl)cc1OC1CNC1)c1ccccc1 [Example 181, 2-[2-(Azetidin-3-yloxy)-4-chloro-phenoxy]-1-phenyl-ethanone oxime]	19 nM	967 nM	20 nM
–	CN1CC(Oc2cc(F)ccc2OCc2cccc(Cl)c2)C1 [Example 203, 3-[2-(3-Chloro-benzyloxy)-5-fluoro-phenoxy]-1-methyl-azetidine]	24 nM	271 nM	20 nM
48 nM	O=C(c1ccc(Cl)cc1)c1ccc(Br)cc1OC1CNC1 [Example 281, [2-(Azetidin-3-yloxy)-4-bromo-phenyl]-(4-chloro-phenyl)-methanone]	–	–	316 nM
39 nM	O=C(c1cccc(Cl)c1)c1ccc(Br)cc1OC1CNC1 [Example 282, [2-(Azetidin-3-yloxy)-4-bromo-phenyl]-(3-chloro-phenyl)-methanone]	–	–	200 nM
